A word on the IC50: it is the point on the concentration scale where inhibition reaches its midpoint.

The structures appear in SMILES notation.

Experimental findings from patent publication US11331314B2, “Amine substituted triazole derivatives and uses thereof” (Bayer Pharma Aktiengesellschaft, priority 2017, dated 2022) are described below.

Assay [1] concerns the target human V1a receptor (Homo sapiens, UniProt P37288). Nature of the assay: Cellular in vitro assay for determining vasopressin receptor activity, V1a receptor cell line (photoprotein luminescence). The settings on record: for IC50: CHO cell line transfected with the human V1a receptor, agonist [Arg8]-vasopressin at EC50 concentration, read-out: IC50 hV1a; for ratio IC50 hV2/hV1a: selectivity ratio of the cellular IC50 values. It is filed as cell-based. The protocol:
(§1) B-1. Cellular In Vitro Assay for Determining Vasopressin Receptor Activity
(§2) The identification of agonists and antagonists of the V1a and V2 vasopressin receptors from humans, rats and dogs as well as the quantification of the activity of the compounds of the invention is carried out using recombinant cell lines. These cell lines originally derive from a hamster's ovary epithelial cell (Chinese Hamster Ovary, CHO K1, ATCC: American Type Culture Collection, Manassas, Va. 20108, USA). The test cell lines constitutively express the human, rat or dog V1a or V2 receptors. In case of the Gαq-coupled V1a receptors, cells are also stably transfected with a modified form of the calcium-sensitive photoproteins aequorin (human and rat V1a) or obelin (dog V1a), which, after reconstitution with the cofactor coelenterazine, emit light when there are increases in free calcium concentrations [Rizzuto R, Simpson A W, Brini M, Pozzan T, Nature 358, 325-327 (1992); Illarionov B A, Bondar V S, Illarionova V A, Vysotski E S, Gene 153 (2), 273-274 (1995)]. The resulting vasopressin receptor cells react to stimulation of the recombinantly expressed V1a receptors by intracellular release of calcium ions, which can be quantified by the resulting photoprotein luminescence. The Gs-coupled V2 receptors are stably transfected into cell lines expressing the gene for firefly luciferase under control of a CRE-responsible promoter. Activation of V2 receptors induces the activation of the CRE-responsive promoter via cAMP increase, thereby inducing the expression of firefly luciferase. The light emitted by photoproteins of V1a cell lines as well as the light emitted by firefly luciferase of V2 cell lines corresponds to the activation or inhibition of the respective vasopressin receptor. The bioluminescence of the cell lines is detected using a suitable luminometer [Milligan G, Marshall F, Rees S, Trends in Pharmacological Sciences 17, 235-237 (1996)].
Vasopressin V1a Receptor Cell Lines:
On the day before the assay, the cells are plated out in culture medium (DMEM/F12, 2% FCS, 2 mM glutamine, 10 mM HEPES, 5 μg/ml coelenterazine) in 384-well microtiter plates and kept in a cell incubator (96% humidity, 5% v/v CO2, 37° C.). On the day of the assay, test compounds in various concentrations are placed for 10 minutes in the wells of the microtiter plate before the agonist [Arg^8]-vasopressin at EC50 concentration is added. The resulting light signal is measured immediately in a luminometer.
(§3) Table 1A below lists individual IC50 values for the compounds of the invention (including racemic mixtures as well as separated enantiomers) that were obtained from cell lines transfected with the human V1a or V2 receptor: […]

In assay [2] the target is T1, human V2 receptor (Homo sapiens, UniProt P30518).
T1 construct: expressed in transfected cells; host or cells: CHO K1 (ATCC) expressing firefly luciferase under a CRE-responsive promoter
Nature of the assay: Cellular in vitro assay for determining vasopressin receptor activity, V2 receptor cell line (CRE-luciferase). The format is cell-based. The settings on record: CHO cell line transfected with the human V2 receptor; agonist [Arg8]-vasopressin at EC50 concentration; read-out: IC50 hV2. The protocol:
as §1, §2
Vasopressin V2 Receptor Cell Lines:
On the day before the assay, the cells are plated out in culture medium (DMEM/F12, 2% FCS, 2 mM glutamine, 10 mM HEPES) in 384-well microtiter plates and kept in a cell incubator (96% humidity, 5% v/v CO2, 37° C.). On the day of the assay, test compounds in various concentrations and the agonist [Arg^8]-vasopressin at EC50 concentration are added together to the wells, and plates are incubated for 3 hours in a cell incubator. Upon addition of the cell lysis reagent Triton™ and the substrate luciferin, luminescence of firefly luciferase is measured in a luminometer.
as §3

Sequence of human V1a receptor (P37288 whole entry): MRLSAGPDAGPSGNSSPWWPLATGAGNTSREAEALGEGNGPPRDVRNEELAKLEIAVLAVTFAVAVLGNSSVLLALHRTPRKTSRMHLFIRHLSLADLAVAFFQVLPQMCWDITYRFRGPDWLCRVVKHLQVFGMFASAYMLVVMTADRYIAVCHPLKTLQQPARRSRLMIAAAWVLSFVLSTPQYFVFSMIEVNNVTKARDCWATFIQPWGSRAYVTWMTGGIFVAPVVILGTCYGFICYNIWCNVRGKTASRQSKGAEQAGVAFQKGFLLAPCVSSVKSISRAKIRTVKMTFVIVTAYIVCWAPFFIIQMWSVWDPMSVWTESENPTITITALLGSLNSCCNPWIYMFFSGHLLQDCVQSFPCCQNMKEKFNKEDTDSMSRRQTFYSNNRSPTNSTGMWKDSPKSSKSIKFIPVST
T1 sequence (P30518 whole entry): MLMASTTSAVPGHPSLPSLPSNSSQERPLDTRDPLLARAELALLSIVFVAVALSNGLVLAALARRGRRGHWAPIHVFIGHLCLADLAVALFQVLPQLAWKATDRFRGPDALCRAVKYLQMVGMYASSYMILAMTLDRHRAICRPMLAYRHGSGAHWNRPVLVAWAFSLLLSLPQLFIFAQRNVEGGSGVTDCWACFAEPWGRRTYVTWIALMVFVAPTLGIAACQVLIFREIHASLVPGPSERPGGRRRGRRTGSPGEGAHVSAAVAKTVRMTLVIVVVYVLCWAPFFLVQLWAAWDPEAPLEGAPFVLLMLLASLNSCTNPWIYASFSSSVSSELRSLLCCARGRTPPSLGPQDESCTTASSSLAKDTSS

With `CC(C)(CNc1nc(Cn2nc(-c3ccc(Cl)cc3)n(C[C@H](O)C(F)(F)F)c2=O)nn1CCC(F)(F)F)NS(C)(=O)=O` [Example 102, N-(1-{[3-({3-(4-Chlorophenyl)-5-oxo-4-[(2S)-3,3,3-trifluoro-2-hydroxypropyl]-4,5-dihydro-1H-1,2,4-triazol-1-yl}methyl)-1-(3,3,3-trifluoropropyl)-1H-1,2,4-triazol-5-yl]amino}-2-methylpropan-2-yl)methanesulfonamide], in assay [1], the IC50 is 3.9 nM and the “ratio IC50 hV2/hV1a” value is 31.5. The IC50 in assay [2] turned out to be 123 nM.
The corresponding values for `C[C@H](O)CNc1nc(Cn2nc(-c3ccc(Cl)cc3)n(C[C@H](O)C(F)(F)F)c2=O)nn1-c1ccccc1Cl` [Example 50, 5-(4-Chlorophenyl)-2-{[1-(2-chlorophenyl)-5-{[(2S)-2-hydroxypropyl]amino}-1H-1,2,4-triazol-3-yl]methyl}-4-[(2S)-3,3,3-trifluoro-2-hydroxypropyl]-2,4-dihydro-3H-1,2,4-triazol-3-one] are 0.47 nM, 4.5 and 2.08 nM.
The like results for `O=C1NCCC1Nc1nc(Cn2nc(-c3ccc(Cl)cc3)n(C[C@H](O)C(F)(F)F)c2=O)nn1-c1ccccc1Cl` (mixture of isomers) [Example 16, 5-(4-Chlorophenyl)-2-{[1-(2-chlorophenyl)-5-{[2-oxopyrrolidin-3-yl]amino}-1H-1,2,4-triazol-3-yl]methyl}-4-[(2S)-3,3,3-trifluoro-2-hydroxypropyl]-2,4-dihydro-3H-1,2,4-triazol-3-one] were, in that order, 0.33 nM, 2.5 and 0.82 nM.
The corresponding values for `NC(=O)C1CN(c2nc(Cn3nc(-c4ccc(Cl)cc4)n(C[C@H](O)C(F)(F)F)c3=O)nn2CCC(F)(F)F)C1` [Example 113, 1-[3-({3-(4-Chlorophenyl)-5-oxo-4-[(2S)-3,3,3-trifluoro-2-hydroxypropyl]-4,5-dihydro-1H-1,2,4-triazol-1-yl}methyl)-1-(3,3,3-trifluoropropyl)-1H-1,2,4-triazol-5-yl]azetidine-3-carboxamide] are 37 nM, 9.7 and 360 nM.
`COCCNc1nc(Cn2nc(-c3ccc(Cl)cc3)n(C[C@H](O)C(F)(F)F)c2=O)nn1-c1ccccc1Cl` [Example 79, 5-(4-Chlorophenyl)-2-({1-(2-chlorophenyl)-5-[(2-methoxyethyl)amino]-1H-1,2,4-triazol-3-yl}methyl)-4-[(2S)-3,3,3-trifluoro-2-hydroxypropyl]-2,4-dihydro-3H-1,2,4-triazol-3-one]: in assay [1], the IC50 stood at 0.32 nM and the “ratio IC50 hV2/hV1a” value amounted to 6.8. For the same compound, the IC50 in assay [2] came out at 2.19 nM.
The corresponding values for `CC(C)(C)OC(=O)N1CCC(O)(CNc2nc(Cn3nc(-c4ccc(Cl)cc4)n(C[C@H](O)C(F)(F)F)c3=O)nn2-c2ccccc2Cl)CC1` [Example 21, tert-Butyl 4-({[1-(2-chlorophenyl)-3-({3-(4-chlorophenyl)-5-oxo-4-[(2S)-3,3,3-trifluoro-2-hydroxypropyl]-4,5-dihydro-1H-1,2,4-triazol-1-yl}methyl)-1H-1,2,4-triazol-5-yl]amino}methyl)-4-hydroxypiperidine-1-carboxylate] are 2 nM, 17.8 and 35.5 nM.
Consider `CC1(O)CCN(c2nc(Cn3nc(-c4ccc(Cl)cc4)n(C[C@H](O)C(F)(F)F)c3=O)nn2-c2ccccc2Cl)C1` (single isomer, unassigned) [Example 30], for which, in assay [1], the IC50 came to 0.38 nM and the “ratio IC50 hV2/hV1a” value amounted to 7.2. Further, the IC50 in assay [2] amounted to 2.7 nM.
